Laboratory results published in US10968225B2, “Compounds and compositions for the treatment of cystic fibrosis” (Fondazione Istituto Italiano Di Tecnologia, priority 2017, dated 2021).
Where a name gives a salt, the structure may show the parent alone.

Molecular target: T1, mutant CFTR (Homo sapiens, UniProt P13569, DEL508-508)
T1 construct: expressed in transfected cells
Experiment: Fluorescence (HS-YFP) assay for CFTR activity, corrector assay
Assay type: cell-based
Conditions: CFBE41o- and FRT cells with stable expression of mutant CFTR, read-out: activity (EC50)

T1 sequence (P13569 with tags, fused parts or gaps DEL508-508): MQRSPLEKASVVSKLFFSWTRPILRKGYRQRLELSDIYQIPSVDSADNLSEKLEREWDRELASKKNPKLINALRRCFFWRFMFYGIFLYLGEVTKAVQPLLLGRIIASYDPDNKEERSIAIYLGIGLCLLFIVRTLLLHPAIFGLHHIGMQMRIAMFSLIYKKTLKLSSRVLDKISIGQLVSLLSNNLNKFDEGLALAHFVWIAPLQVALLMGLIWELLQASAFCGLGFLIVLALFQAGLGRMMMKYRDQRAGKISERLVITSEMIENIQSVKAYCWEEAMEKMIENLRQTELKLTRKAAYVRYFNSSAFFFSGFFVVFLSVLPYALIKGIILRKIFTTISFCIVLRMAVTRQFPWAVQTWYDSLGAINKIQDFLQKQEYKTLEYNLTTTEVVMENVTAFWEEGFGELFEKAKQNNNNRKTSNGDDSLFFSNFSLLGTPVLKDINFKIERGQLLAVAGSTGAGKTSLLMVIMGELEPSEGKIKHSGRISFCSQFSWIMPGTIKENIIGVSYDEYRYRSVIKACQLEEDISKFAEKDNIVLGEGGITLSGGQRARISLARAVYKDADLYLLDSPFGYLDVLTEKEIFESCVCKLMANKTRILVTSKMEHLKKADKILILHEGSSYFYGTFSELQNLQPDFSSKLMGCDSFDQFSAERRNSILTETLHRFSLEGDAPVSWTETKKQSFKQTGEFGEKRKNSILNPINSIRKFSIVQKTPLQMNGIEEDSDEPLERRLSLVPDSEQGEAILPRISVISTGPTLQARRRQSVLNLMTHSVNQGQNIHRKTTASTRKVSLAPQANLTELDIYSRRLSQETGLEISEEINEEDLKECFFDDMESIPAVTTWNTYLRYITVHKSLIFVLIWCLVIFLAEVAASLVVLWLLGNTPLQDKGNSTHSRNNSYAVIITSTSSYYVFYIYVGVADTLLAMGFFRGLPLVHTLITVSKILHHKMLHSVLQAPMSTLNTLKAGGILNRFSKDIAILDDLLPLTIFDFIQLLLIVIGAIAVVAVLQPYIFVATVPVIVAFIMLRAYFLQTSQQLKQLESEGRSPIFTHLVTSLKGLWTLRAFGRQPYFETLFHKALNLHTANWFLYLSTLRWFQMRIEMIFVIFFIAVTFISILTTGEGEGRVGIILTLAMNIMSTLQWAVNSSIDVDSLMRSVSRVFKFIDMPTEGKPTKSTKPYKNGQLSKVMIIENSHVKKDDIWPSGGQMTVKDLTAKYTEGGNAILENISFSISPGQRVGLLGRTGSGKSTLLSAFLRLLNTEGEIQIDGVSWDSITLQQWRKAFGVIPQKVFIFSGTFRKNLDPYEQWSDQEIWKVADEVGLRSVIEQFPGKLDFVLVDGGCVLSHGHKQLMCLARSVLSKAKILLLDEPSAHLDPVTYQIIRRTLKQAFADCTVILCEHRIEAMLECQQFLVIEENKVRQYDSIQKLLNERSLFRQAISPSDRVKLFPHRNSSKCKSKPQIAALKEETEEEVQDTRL

`CN(C(=O)c1cccc(-n2nc(C(F)(F)F)c3c2C(Oc2ncc(C(=O)O)cn2)COC3)c1)c1ccc2c(c1)OCC2` (single isomer, unassigned) [Compound 298, (R) or (S)-2-[[1-[3-[2,3-dihydrobenzofuran-6-yl(methyl)carbamoyl]phenyl]-3-(trifluoromethyl)-6,7-dihydro-4H-pyrano[4,3-c]pyrazol-7-yl]oxy]pyrimidine-5-carboxylic acid] and `CN(C(=O)c1cccc(-n2nc(C(F)(F)F)c3c2CCN(Cc2cccc(C(=O)O)c2)C3)c1)c1ccc2c(c1)OCO2` [Compound 025, 3-[[1-[3-[1,3-Benzodioxol-5-yl(methyl)carbamoyl]phenyl]-3-(trifluoromethyl)-6,7-dihydro-4H-pyrazolo[4,3-c]pyridin-5-yl]methyl]benzoic acid] cannot be ordered by EC50: less than 1000 nM for the first, less than 1000 nM for the second.

First: CN(C(=O)c1cccc(-n2nc(C(F)(F)F)c3c2C(Oc2ncc(C(=O)O)cn2)COC3)c1)c1ccc2c(c1)OCC2 (single isomer, unassigned) [Compound 299, (S) or (R)-2-[[1-[3-[2,3-dihydrobenzofuran-6-yl(methyl)carbamoyl]phenyl]-3-(trifluoromethyl)-6,7-dihydro-4H-pyrano[4,3-c]pyrazol-7-yl]oxy]pyrimidine-5-carboxylic acid]
Second: CN(C(=O)c1cccc(-n2nc(C(F)(F)F)c3c2CCN(C(=O)c2ccccc2)C3)c1)c1ccc2c(c1)OCO2 [Compound 008, N-(1,3-Benzodioxol-5-yl)-3-[5-benzoyl-3-(trifluoromethyl)-6,7-dihydro-4H-pyrazolo[4,3-c]pyridin-1-yl]-N-methyl-benzamide]
The EC50 of the first is higher: 1000 to 2000 nM for the first, less than 1000 nM for the second.

`CN(C(=O)c1cccc(-n2nc(C(F)(F)F)c3c2C(Oc2ccc(CO)cc2)CCC3)c1)c1ccc2c(c1)OC(F)(F)O2` (stereo in doubt) [Compound 304, N-(2,2-Difluoro-1,3-benzodioxol-5-yl)-3-[(S)-7-[4-(hydroxymethyl)phenoxy]-3-(trifluoromethyl)-4,5,6,7-tetrahydroindazol-1-yl]-N-methyl-benzamide] and `CN(C(=O)c1cccc(-n2nc(C(F)(F)F)c3c2CCN(Cc2ccc(C(=O)O)cc2)C3)c1)c1ccc2c(c1)OCO2` [Compound 026, 4-[[1-[3-[1,3-Benzodioxol-5-yl(methyl)carbamoyl]phenyl]-3-(trifluoromethyl)-6,7-dihydro-4H-pyrazolo[4,3-c]pyridin-5-yl]methyl]benzoic acid] cannot be ordered by EC50: less than 1000 nM for the first, less than 1000 nM for the second.

`CN(C(=O)c1cccc(-n2nc(C(F)(F)F)c3c2CCN(C(=O)OC(C)(C)C)C3)c1)c1ccc2c(c1)OCO2` [Compound 001, Tert-butyl 1-[3-[1,3-benzodioxol-5-yl(methyl)carbamoyl]phenyl]-3-(trifluoromethyl)-6,7-dihydro-4H-pyrazolo[4,3-c]pyridine-5-carboxylate] and `CN(C(=O)c1cccc(-n2nc(C(F)(F)F)c3c2CN(C(=O)OC(C)(C)C)CC3)c1)c1ccc2c(c1)OCO2` [Compound 027, tert-Butyl 1-[3-[1,3-benzodioxol-5-yl(methyl)carbamoyl]phenyl]-3-(trifluoromethyl)-5,7-dihydro-4H-pyrazolo[3,4-c]pyridine-6-carboxylate] cannot be ordered by EC50: less than 1000 nM for the first, less than 1000 nM for the second.

`CN(C(=O)c1cccc(-n2nc(C(F)(F)F)c3c2CCNC3)c1)c1ccc2c(c1)OCO2` [Compound 002, N-(1,3-Benzodioxol-5-yl)-N-methyl-3-[3-(trifluoromethyl)-4,5,6,7-tetrahydropyrazolo[4,3-c]pyridin-1-yl] benzamide hydrochloride] and `CN(C(=O)c1cccc(-n2nc(C(F)(F)F)c3c2CCCC3)c1)c1ccc2c(c1)OCO2` [Compound 005, N-(1,3-Benzodioxol-5-yl)-N-methyl-3-[3-(trifluoromethyl)-4,5,6,7-tetrahydroindazol-1-yl]benzamide] cannot be ordered by EC50: less than 1000 nM for the first, less than 1000 nM for the second.

`CC(=O)N1CCc2c(c(C(F)(F)F)nn2-c2cccc(C(=O)N(C)c3ccc4c(c3)OCO4)c2)C1` [Compound 004, 3-[5-Acetyl-3-(trifluoromethyl)-6,7-dihydro-4H-pyrazolo[4,3-c]pyridin-1-yl]-N-(1,3-benzodioxol-5-yl)-N-methyl-benzamide] and `COC(=O)N1CCc2c(c(C(F)(F)F)nn2-c2cccc(C(=O)N(C)c3ccc4c(c3)OCO4)c2)C1` [Compound 009, Methyl 1-[3-[1,3-benzodioxol-5-yl(methyl)carbamoyl]phenyl]-3-(trifluoromethyl)-6,7-dihydro-4H-pyrazolo[4,3-c] pyridine-5-carboxylate] cannot be ordered by EC50: less than 1000 nM for the first, less than 1000 nM for the second.

`CN(C(=O)c1cccc(-n2nc(C(F)(F)F)c3c2CCN(S(C)(=O)=O)C3)c1)c1ccc2c(c1)OCO2` [Compound 006, N-(1,3-Benzodioxol-5-yl)-N-methyl-3-[5-methylsulfonyl-3-(trifluoromethyl)-6,7-dihydro-4H-pyrazolo[4,3-c]pyridin-1-yl]benzamide] and `CC(C)N1CCc2c(c(C(F)(F)F)nn2-c2cccc(C(=O)N(C)c3ccc4c(c3)OCO4)c2)C1` [Compound 021, N-(1,3-Benzodioxol-5-yl)-3-[5-isopropyl-3-(trifluoromethyl)-6,7-dihydro-4H-pyrazolo[4,3-c]pyridin-1-yl]-N-methyl-benzamide] cannot be ordered by EC50: less than 1000 nM for the first, less than 1000 nM for the second.

`CN(C(=O)c1cccc(-n2nc(C(F)(F)F)c3c2CCN(S(=O)(=O)c2ccccc2)C3)c1)c1ccc2c(c1)OCO2` [Compound 007, 3-[5-(Benzenesulfonyl)-3-(trifluoromethyl)-6,7-dihydro-4H-pyrazolo[4,3-c]pyridin-1-yl]-N-(1,3-benzodioxol-5-yl)-N-methyl-benzamide] and `CN(C(=O)c1cccc(-n2nc(C(F)(F)F)c3c2CCN(C(=O)C(C)(C)c2ccccc2)C3)c1)c1ccc2c(c1)OCO2` [Compound 035, N-(1,3-Benzodioxol-5-yl)-N-methyl-3-[5-(2-methyl-2-phenyl-propanoyl)-3-(trifluoromethyl)-6,7-dihydro-4H-pyrazolo[4,3-c]pyridin-1-yl]benzamide] cannot be ordered by EC50: less than 1000 nM for the first, less than 1000 nM for the second.

`CN(C(=O)c1cccc(-n2nc(C(F)(F)F)c3c2CCN(C[C@@H]2COC(C)(C)O2)C3)c1)c1ccc2c(c1)OCO2` [Compound 013, N-(1,3-Benzodioxol-5-yl)-3-[5-[[(4R)-2,2-dimethyl-1,3-dioxolan-4-yl]methyl]-3-(trifluoromethyl)-6,7-dihydro-4H-pyrazolo[4,3-c]pyridin-1-yl]-N-methyl-benzamide] and `CN(C(=O)c1cccc(-n2nc(C(F)(F)F)c3c2CCN(C[C@H]2COC(C)(C)O2)C3)c1)c1ccc2c(c1)OCO2` [Compound 014, N-(1,3-Benzodioxol-5-yl)-3-[5-[[(4S)-2,2-dimethyl-1,3-dioxolan-4-yl]methyl]-3-(trifluoromethyl)-6,7-dihydro-4H-pyrazolo[4,3-c]pyridin-1-yl]-N-methyl-benzamide] cannot be ordered by EC50: less than 1000 nM for the first, less than 1000 nM for the second.

`CN(C(=O)c1cccc(-n2nc(C(F)(F)F)c3c2CCN(C[C@@H](O)CO)C3)c1)c1ccc2c(c1)OCO2` [Compound 015, N-(1,3-Benzodioxol-5-yl)-3-[5-[(2R)-2,3-dihydroxypropyl]-3-(trifluoromethyl)-6,7-dihydro-4H-pyrazolo[4,3-c]pyridin-1-yl]-N-methyl-benzamide] and `CN(C(=O)c1cccc(-n2nc(C(F)(F)F)c3c2CCN(C[C@H](O)CO)C3)c1)c1ccc2c(c1)OCO2` [Compound 016, N-(1,3-Benzodioxol-5-yl)-3-[5-[(2S)-2,3-dihydroxypropyl]-3-(trifluoromethyl)-6,7-dihydro-4H-pyrazolo[4,3-c]pyridin-1-yl]-N-methyl-benzamide] cannot be ordered by EC50: less than 1000 nM for the first, less than 1000 nM for the second.

`CN1CCOc2c(c(C(F)(F)F)nn2-c2cccc(C(=O)N(C)c3ccc4c(c3)OCO4)c2)C1` [Compound 017, N-(1,3-Benzodioxol-5-yl)-N-methyl-3-[5-methyl-3-(trifluoromethyl)-6,7-dihydro-4H-pyrazolo[4,3-f][1,4]oxazepin-1-yl]benzamide] and `CN1CCc2c(C(F)(F)F)nn(-c3cccc(C(=O)N(C)c4ccc5c(c4)OCO5)c3)c2C1` [Compound 029, N-(1,3-Benzodioxol-5-yl)-N-methyl-3-[6-methyl-3-(trifluoromethyl)-5,7-dihydro-4H-pyrazolo[3,4-c]pyridin-1-yl]benzamide] cannot be ordered by EC50: less than 1000 nM for the first, less than 1000 nM for the second.

`CN(C(=O)c1cccc(-n2nc(C(F)(F)F)c3c2CCN(CC2CC2)C3)c1)c1ccc2c(c1)OCO2` [Compound 019, N-(1,3-Benzodioxol-5-yl)-3-[5-(cyclopropylmethyl)-3-(trifluoromethyl)-6,7-dihydro-4H-pyrazolo[4,3-c]pyridin-1-yl]-N-methyl-benzamide] and `CN(C(=O)c1cccc(-n2nc(C(F)(F)F)c3c2CCN(C(=O)C2(O)CC2)C3)c1)c1ccc2c(c1)OCO2` [Compound 034, N-(1,3-Benzodioxol-5-yl)-3-[5-(1-hydroxycyclopropanecarbonyl)-3-(trifluoromethyl)-6,7-dihydro-4H-pyrazolo[4,3-c]pyridin-1-yl]-N-methyl-benzamide] cannot be ordered by EC50: less than 1000 nM for the first, less than 1000 nM for the second.

`CN(C(=O)c1cccc(-n2nc(C(F)(F)F)c3c2CCCN3C(=O)OC(C)(C)C)c1)c1ccc2c(c1)OCO2` [Compound 028, tert-Butyl 1-[3-[1,3-benzodioxol-5-yl(methyl)carbamoyl]phenyl]-3-(trifluoromethyl)-6,7-dihydro-5H-pyrazolo[4,3-b]pyridine-4-carboxylate] and `CN(C(=O)c1cccc(-n2nc(C(F)(F)F)c3c2CCN(C(=O)C(C)(C)C(F)(F)F)C3)c1)c1ccc2c(c1)OCO2` [Compound 033, N-(1,3-Benzodioxol-5-yl)-N-methyl-3-[5-(3,3,3-trifluoro-2,2-dimethyl-propanoyl)-3-(trifluoromethyl)-6,7-dihydro-4H-pyrazolo[4,3-c]pyridin-1-yl]benzamide] cannot be ordered by EC50: less than 1000 nM for the first, less than 1000 nM for the second.

First: Cc1nc2ccc(N(C)C(=O)c3cccc(-n4nc(C(F)(F)F)c5c4CCNC5)c3)cc2o1 [Compound 030, N-Methyl-N-(2-methyl-1,3-benzoxazol-6-yl)-3-[3-(trifluoromethyl)-4,5,6,7-tetrahydropyrazolo[4,3-c]pyridin-1-yl]benzamide hydrochloride]
Second: CC(C)C(=O)N1CCc2c(c(C(F)(F)F)nn2-c2cccc(C(=O)N(C)c3ccc4c(c3)OCO4)c2)C1 [Compound 031, N-(1,3-Benzodioxol-5-yl)-N-methyl-3-[5-(2-methylpropanoyl)-3-(trifluoromethyl)-6,7-dihydro-4H-pyrazolo[4,3-c]pyridin-1-yl]benzamide]
The EC50 of the first is higher: 1000 to 2000 nM for the first, less than 1000 nM for the second.
